Calls of active or inactive are those of the source. The rule behind the calls is not given here.

This test concerns the target T1, Dihydrofolate reductase (Homo sapiens) (UniProt P00374).
T1 sequence (whole entry): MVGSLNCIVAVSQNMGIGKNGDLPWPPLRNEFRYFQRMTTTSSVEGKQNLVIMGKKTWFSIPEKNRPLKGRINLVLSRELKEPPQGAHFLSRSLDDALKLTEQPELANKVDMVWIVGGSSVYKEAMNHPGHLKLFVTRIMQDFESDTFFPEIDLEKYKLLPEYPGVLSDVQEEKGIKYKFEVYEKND
Description: Binding affinity to [13C]-labeled DHFR DHFR (unknown origin) expressed in Escherichia coli BL21(DE3) using hyperpolarized compound sample at 1.6 mM by dissolution dynamic nuclear polarization and NMR spectroscopy.

Regarding `Nc1nc(=O)c2nc(CNc3ccc(C(=O)N[C@@H](CCC(=O)O)C(=O)O)cc3)cnc2[nH]1`, the outcome was Active.

The values are drawn from ChEMBL document CHEMBL4480401, “Determination of Ligand Binding Epitope Structures Using Polarization Transfer from Hyperpolarized Ligands” (J Med Chem, 2019).
